The source of these data is ChEMBL document CHEMBL1201862, “PubChem BioAssay data set” (2004).

Active and inactive are the calls of the source.

Common to all, as to assay type: functional
The target in assay [1] is T1, High affinity choline transporter 1 (Homo sapiens, UniProt Q9GZV3).
T1 sequence (Q9GZV3 whole entry): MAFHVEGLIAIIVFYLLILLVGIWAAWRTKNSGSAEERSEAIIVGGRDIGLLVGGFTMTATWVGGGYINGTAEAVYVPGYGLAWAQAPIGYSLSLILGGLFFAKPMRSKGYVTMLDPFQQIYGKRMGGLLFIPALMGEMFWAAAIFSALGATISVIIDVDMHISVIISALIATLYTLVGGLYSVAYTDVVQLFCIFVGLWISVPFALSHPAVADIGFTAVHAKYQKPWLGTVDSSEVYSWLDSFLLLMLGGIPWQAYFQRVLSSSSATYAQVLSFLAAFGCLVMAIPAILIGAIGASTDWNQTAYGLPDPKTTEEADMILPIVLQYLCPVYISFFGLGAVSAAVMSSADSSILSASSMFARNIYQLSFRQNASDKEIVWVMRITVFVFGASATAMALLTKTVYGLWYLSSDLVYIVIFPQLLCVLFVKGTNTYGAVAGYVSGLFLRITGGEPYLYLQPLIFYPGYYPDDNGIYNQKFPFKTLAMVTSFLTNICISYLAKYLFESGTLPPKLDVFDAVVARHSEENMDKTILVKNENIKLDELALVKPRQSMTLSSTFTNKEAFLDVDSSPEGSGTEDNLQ
In words: CHT inhibitors, dose response, cell-based, 5-point CRC, membrane potential dye (AID 504840).

In assay [2] the target is T1, High affinity choline transporter 1. In words: CHT inhibitors, dose response, cell-based, 10-point CRC, membrane potential dye (AID 588401).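 Further: membrane potential dye fluorescence of choline-evoked depolarization via CHT.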
Assay [3] addresses Fibroblast growth factor receptor 1 (Homo sapiens, UniProt P11362).
Assay [4] has as its target Dual specificity protein kinase CLK4 (Homo sapiens, UniProt Q9HAZ1).
In assay [5] the target is Receptor-type tyrosine-protein kinase FLT3 (Homo sapiens, UniProt P36888).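 Further: FLT3 was tested as one member of a kinome-wide kinase panel.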
The target of assay [6] is T2, Orexin receptor type 2 (Homo sapiens, UniProt O43614). As to the kind of experiment: Counterscreen assay for antagonists of the orexin 1 receptor (OX1R; HCRTR1): Fluorescence-based cell-based dose response assay for antagonists of the orexin 2 receptor (OX2R; HCRTR2), run by assay provider. In general terms: Counterscreens check selectivity or assay interference.
Another assay deals with CHO-K1. As to the kind of experiment: Counterscreen for antagonists of the orexin 1 receptor (OX1R; HCRTR1): Homogeneous time resolved fluorescence (HTRF)-based cell-based dose response assay to identify antagonists of the parental CHO-K1 cell line. [Related pubchem assays (depositor defined):AID434989, AID435008, AID463079, AID485270, AID492963, AID492964, AID492965, AID493232, AID504699, AID504701]. The conditions noted are these: Cricetulus griseus.

Assay [7] has as its target T2, Orexin receptor type 2. As to the kind of experiment: Counterscreen assay for antagonists of the orexin 1 receptor (OX1R; HCRTR1): Homogeneous Time Resolved Fluorescence (HTRF)-based cell-based dose response assay for antagonists of the orexin 2 receptor (OX2R; HCRTR2), run by assay provider.
The target in assay [8] is T3, Orexin/Hypocretin receptor type 1 (Homo sapiens, UniProt O43613).
T3 sequence (O43613 whole entry): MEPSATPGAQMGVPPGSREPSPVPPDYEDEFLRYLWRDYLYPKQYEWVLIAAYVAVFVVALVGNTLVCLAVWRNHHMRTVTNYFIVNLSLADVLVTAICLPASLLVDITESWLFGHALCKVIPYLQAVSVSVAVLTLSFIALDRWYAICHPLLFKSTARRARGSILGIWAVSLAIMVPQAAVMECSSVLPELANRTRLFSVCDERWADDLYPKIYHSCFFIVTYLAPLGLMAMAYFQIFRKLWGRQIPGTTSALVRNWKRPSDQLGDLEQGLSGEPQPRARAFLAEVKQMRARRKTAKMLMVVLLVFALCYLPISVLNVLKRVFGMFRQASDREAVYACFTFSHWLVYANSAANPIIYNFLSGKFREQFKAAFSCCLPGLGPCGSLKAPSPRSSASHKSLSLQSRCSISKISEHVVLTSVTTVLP
In words: Fluorescence-based cell-based high throughput dose response assay for antagonists of the orexin 1 receptor (OX1R; HCRTR1). [Related pubchem assays (depositor defined):AID434989, AID435008, AID463079, AID485270, AID492963, AID492964, AID492965, AID493232, AID504717, AID504718].

In assay [9] the target is T3, Orexin/Hypocretin receptor type 1. As to the kind of experiment: Homogeneous Time Resolved Fluorescence (HTRF)-based cell-based high throughput dose response assay for antagonists of the orexin 1 receptor (OX1R; HCRTR1). [Related pubchem assays (depositor defined):AID434989, AID435008, AID463079, AID485270, AID492963, AID492964, AID492965, AID493232, AID504717, AID504718]. A general note: TR-FRET usually uses a lanthanide donor and a delayed reading to cut background.

The nature of assay [10]: Counterscreen for antagonists of the orexin 1 receptor (OX1R; HCRTR1): Fluorescence-based cell-based high throughput dose response assay to identify antagonists of the parental CHO cell line. [Related pubchem assays (depositor defined):AID434989, AID435008, AID463079, AID485270, AID492963, AID492964, AID492965, AID493232, AID504699, AID504701].
Assay [11] addresses Cyclin-dependent kinase 8 (Homo sapiens, UniProt P49336). As to the kind of experiment: Navigating the Kinome. Panel member name: CDK8.
In assay [12] the target is Leucine-rich repeat serine/threonine-protein kinase 2 (Homo sapiens, UniProt Q5S007).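 Further: value from a broad kinome-wide panel profiling study in which LRRK2 was one of the kinases tested.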
The target of assay [13] is Vascular endothelial growth factor receptor 1 (Homo sapiens, UniProt P17948).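 Further: measured within a kinome-wide profiling panel, FLT1 as the panel member.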
For assay [14], the target named is Hepatocyte growth factor receptor (Homo sapiens, UniProt P08581).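 Further: kinase panel profiling across the kinome, with MET as the panel member.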
The target of assay [15] is Serine/threonine-protein kinase Chk1 (Homo sapiens, UniProt O14757).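 Further: measured as one member of a kinome-wide kinase profiling panel.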
In assay [16] the target is Serine/threonine-protein kinase PLK1 (Homo sapiens, UniProt P53350).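 Further: PLK1 measured as one member of a kinome-wide profiling panel.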
In assay [17] the target is Serine/threonine-protein kinase PLK3 (Homo sapiens, UniProt Q9H4B4).
Assay [18] has as its target Vascular endothelial growth factor receptor 2 (Homo sapiens, UniProt P35968).
In a further assay the target is Insulin receptor (Homo sapiens, UniProt P06213).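 Further: insulin receptor kinase tested as one member of a kinome-wide kinase panel.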
In assay [19] the target is RAC-alpha serine/threonine-protein kinase (Homo sapiens, UniProt P31749).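 Further: AKT1 affinity measured as one member of a kinome-wide kinase profiling panel.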
The target in assay [20] is Serine/threonine-protein kinase pim-3 (Homo sapiens, UniProt Q86V86).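 Further: value obtained as one member of a broad kinase panel profiling effort.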
The target in assay [21] is Serine/threonine-protein kinase pim-1 (Homo sapiens, UniProt P11309).
For assay [22], the target named is RAC-gamma serine/threonine-protein kinase (Homo sapiens, UniProt Q9Y243).
Assay [23] has as its target Serine/threonine-protein kinase PLK4 (Homo sapiens, UniProt O00444).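 Further: PLK4 measured as one member of a kinome-wide kinase profiling panel.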
The target in assay [24] is Cyclin-dependent kinase 19 (Homo sapiens, UniProt Q9BWU1). As to the kind of experiment: Navigating the Kinome. Panel member name: CDC2L6.
Assay [25] concerns the target ALK tyrosine kinase receptor (Homo sapiens, UniProt Q9UM73).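 Further: ALK tested as one member of a kinase panel screen.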
Assay [26] has as its target Mitogen-activated protein kinase 13 (Homo sapiens, UniProt O15264).
For assay [27], the target named is BDNF/NT-3 growth factors receptor (Homo sapiens, UniProt Q16620).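 Further: NTRK2 measured as one member of a broad kinome-wide kinase profiling panel.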
The target in assay [28] is High affinity nerve growth factor receptor (Homo sapiens, UniProt P04629).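 Further: NTRK1 tested as one member of a kinome-wide profiling panel.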
High affinity nerve growth factor receptor, sequence (P04629 whole entry): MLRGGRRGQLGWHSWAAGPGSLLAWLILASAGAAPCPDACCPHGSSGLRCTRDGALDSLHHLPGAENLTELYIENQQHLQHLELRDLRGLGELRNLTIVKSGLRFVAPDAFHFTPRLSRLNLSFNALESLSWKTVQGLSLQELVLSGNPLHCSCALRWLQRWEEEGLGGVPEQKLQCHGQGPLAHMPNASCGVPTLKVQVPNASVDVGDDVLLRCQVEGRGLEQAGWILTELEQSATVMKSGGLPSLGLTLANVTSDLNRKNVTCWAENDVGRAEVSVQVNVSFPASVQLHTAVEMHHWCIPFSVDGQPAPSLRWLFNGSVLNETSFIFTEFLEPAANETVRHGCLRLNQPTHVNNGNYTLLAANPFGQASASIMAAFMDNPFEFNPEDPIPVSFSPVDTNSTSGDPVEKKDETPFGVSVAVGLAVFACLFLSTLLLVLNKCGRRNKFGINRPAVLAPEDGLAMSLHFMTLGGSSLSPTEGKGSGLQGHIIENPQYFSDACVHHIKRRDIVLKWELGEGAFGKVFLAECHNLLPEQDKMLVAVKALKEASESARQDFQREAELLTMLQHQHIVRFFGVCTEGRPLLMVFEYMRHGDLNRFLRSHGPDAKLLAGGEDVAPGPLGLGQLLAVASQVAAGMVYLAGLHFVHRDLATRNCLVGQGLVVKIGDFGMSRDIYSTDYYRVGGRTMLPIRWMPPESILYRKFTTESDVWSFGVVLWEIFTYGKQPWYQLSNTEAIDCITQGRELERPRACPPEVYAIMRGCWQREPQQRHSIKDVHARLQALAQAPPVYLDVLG

Receptor-type tyrosine-protein kinase FLT3, sequence (P36888 whole entry): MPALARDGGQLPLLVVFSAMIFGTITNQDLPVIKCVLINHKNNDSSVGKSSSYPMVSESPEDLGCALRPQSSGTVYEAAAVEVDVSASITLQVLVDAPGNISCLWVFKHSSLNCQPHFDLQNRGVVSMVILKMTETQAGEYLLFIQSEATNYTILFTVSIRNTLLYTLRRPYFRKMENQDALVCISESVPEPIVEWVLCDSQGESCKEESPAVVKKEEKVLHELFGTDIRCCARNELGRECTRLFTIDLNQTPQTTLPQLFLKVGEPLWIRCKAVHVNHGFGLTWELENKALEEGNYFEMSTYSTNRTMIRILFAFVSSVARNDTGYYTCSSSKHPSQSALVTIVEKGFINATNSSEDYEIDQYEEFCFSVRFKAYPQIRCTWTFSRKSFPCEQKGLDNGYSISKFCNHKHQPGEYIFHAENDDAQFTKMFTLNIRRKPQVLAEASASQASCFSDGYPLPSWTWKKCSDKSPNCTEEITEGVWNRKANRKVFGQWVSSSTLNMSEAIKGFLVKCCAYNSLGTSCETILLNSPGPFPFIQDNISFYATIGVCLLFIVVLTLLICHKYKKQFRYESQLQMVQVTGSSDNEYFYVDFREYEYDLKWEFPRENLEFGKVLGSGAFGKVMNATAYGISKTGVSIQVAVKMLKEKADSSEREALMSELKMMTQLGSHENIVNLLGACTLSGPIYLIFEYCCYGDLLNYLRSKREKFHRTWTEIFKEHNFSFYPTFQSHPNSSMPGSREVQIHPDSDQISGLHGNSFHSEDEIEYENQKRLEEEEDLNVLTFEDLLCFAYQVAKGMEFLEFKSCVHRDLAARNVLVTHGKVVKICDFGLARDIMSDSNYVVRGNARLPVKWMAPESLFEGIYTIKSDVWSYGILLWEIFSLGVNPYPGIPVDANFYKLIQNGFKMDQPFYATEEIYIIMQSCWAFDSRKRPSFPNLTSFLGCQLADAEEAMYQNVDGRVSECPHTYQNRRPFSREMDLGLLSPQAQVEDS
Fibroblast growth factor receptor 1, sequence (P11362 whole entry): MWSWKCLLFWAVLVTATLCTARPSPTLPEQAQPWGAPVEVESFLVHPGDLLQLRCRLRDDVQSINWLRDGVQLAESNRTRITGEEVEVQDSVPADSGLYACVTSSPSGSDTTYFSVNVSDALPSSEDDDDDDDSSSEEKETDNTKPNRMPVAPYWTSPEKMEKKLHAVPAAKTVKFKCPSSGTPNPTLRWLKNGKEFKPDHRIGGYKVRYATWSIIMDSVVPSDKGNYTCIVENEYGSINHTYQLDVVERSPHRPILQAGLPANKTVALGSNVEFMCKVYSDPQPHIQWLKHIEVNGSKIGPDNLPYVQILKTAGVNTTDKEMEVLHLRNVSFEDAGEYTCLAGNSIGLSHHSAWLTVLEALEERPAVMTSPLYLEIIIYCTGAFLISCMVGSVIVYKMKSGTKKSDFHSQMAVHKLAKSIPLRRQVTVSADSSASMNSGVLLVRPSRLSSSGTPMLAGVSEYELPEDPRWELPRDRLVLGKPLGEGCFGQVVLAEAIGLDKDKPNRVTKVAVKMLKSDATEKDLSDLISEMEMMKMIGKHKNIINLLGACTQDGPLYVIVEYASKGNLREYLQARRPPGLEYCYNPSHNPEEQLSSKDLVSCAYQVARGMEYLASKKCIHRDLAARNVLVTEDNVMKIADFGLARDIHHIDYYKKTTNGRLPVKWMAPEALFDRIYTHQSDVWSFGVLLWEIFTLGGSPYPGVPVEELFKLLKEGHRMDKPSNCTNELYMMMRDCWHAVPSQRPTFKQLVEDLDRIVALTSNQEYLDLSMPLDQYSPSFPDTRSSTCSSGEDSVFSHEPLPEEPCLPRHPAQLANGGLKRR
T2 sequence (O43614 whole entry): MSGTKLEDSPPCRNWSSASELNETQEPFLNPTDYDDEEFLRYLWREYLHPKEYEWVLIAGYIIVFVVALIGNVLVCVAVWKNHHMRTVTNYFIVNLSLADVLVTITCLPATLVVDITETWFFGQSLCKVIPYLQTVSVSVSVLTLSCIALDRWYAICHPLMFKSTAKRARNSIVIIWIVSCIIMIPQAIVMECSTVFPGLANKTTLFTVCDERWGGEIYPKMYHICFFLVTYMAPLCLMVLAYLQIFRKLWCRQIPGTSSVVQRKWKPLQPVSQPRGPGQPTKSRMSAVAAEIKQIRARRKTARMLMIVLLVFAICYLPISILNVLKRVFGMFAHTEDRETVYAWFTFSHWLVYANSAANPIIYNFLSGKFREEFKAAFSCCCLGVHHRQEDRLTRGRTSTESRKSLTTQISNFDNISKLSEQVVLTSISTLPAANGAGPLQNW
ALK tyrosine kinase receptor, sequence (Q9UM73 whole entry): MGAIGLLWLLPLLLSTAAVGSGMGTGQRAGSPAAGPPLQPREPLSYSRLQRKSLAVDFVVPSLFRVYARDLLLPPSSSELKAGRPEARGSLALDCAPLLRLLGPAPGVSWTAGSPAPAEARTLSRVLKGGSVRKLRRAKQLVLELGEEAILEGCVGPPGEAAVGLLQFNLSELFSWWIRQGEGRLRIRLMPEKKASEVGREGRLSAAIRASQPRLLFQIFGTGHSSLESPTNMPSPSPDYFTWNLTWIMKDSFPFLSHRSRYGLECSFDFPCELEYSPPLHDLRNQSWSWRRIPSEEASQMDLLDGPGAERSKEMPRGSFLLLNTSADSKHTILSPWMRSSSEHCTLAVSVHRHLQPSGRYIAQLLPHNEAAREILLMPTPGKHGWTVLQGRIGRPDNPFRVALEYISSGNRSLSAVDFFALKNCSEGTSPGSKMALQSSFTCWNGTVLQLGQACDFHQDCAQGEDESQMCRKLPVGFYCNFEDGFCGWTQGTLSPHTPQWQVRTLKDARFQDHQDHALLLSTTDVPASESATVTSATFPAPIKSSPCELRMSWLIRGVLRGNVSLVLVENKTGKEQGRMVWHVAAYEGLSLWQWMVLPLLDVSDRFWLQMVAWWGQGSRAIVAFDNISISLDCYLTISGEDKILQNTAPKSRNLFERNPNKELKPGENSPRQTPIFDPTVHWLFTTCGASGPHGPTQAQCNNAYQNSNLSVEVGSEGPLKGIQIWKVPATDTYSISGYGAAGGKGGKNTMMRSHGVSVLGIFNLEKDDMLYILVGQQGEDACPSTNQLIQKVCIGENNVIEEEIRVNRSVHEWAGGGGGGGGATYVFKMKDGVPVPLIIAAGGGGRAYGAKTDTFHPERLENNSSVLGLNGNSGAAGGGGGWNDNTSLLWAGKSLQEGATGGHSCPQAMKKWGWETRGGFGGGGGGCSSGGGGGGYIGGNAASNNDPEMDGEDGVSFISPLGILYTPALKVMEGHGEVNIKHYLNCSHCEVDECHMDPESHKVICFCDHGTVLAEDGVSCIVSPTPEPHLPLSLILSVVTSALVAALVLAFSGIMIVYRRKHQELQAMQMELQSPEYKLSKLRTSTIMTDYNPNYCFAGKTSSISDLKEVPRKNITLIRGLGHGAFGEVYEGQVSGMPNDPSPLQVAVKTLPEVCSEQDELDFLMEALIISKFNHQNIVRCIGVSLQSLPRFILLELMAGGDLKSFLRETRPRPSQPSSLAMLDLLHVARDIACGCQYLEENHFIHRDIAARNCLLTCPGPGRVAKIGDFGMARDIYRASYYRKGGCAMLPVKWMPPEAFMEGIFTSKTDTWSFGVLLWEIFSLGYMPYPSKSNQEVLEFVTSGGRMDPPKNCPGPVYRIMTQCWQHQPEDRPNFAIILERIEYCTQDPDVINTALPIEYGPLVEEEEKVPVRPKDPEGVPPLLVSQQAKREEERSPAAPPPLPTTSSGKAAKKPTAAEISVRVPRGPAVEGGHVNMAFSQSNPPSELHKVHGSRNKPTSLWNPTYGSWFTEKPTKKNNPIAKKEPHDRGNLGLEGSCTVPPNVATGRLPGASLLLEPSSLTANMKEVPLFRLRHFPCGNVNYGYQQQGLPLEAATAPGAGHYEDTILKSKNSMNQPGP
Serine/threonine-protein kinase pim-1, sequence (P11309 whole entry): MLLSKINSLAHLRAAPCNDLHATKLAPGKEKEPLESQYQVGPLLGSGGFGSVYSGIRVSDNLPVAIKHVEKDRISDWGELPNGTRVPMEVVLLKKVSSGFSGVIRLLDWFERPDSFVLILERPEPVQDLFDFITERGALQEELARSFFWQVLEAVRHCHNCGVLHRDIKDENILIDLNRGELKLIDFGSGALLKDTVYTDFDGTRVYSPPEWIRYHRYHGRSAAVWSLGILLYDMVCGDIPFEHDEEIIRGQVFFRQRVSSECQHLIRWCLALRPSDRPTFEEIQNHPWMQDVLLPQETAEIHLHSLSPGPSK

A word on the IC50: it is the concentration needed to halve the response being measured. In the case of `Cc1ccc(C)[n+](CC(=O)c2ccc(-c3ccccc3)cc2)c1`, the IC50 was 10.3 µM (active) in assay [1] and 10.8 µM (active) in assay [2].
By Ki is commonly meant the dissociation constant of the complex between target and ligand, obtained from inhibition or displacement. In the case of `CC(C)(C)c1ccc2nc(-c3n[nH]c4ccc(Br)cc34)[nH]c2c1`, the results for the Ki in [3], in [4] and in [5] were 3.16 µM (active), 1.26 µM (active) and 2.51 µM (active), respectively.
For the compound `Sc1nnc(-c2cc(-c3ccccc3)[nH]n2)n1/N=C/c1cccs1`, the IC50 was > 88.8 µM (inactive) at Orexin receptor type 2 [6]; > 66.2 µM (inactive) in the assay with CHO-K1; > 50 µM (inactive) at Orexin receptor type 2 [7]; > 49.7 µM (inactive) in [8]; 8.08 µM (active) in assay [9]; > 49.7 µM (inactive) in assay [10].
With `O=C(O)C1CN(Cc2ccc(CCc3cccc(C(F)(F)F)c3)cc2)C1`, the Ki in [11] is 3.16 µM (active).
Take `COc1ccc(CNC(=O)c2sc3nc(C)cc(C)c3c2N)cc1`: the Ki is 1 µM (active) in [12] and 3.16 µM (active) in [13].
As for `Nc1n[nH]c2c(Cl)cccc12`, the Ki in assay [3] was > 50.1 µM (inactive); in assay [14] it was > 31.6 µM (inactive); in assay [15], 25.1 µM (active); in assay [16], > 79.4 µM (inactive); in assay [17], 10 µM (active); in assay [18], > 79.4 µM (inactive). For the same compound, the Ki at Insulin receptor is > 50.1 µM (inactive); in [19], > 79.4 µM (inactive); in assay [20], > 79.4 µM (inactive); in assay [21], > 100 µM (inactive); in assay [5], 2.51 µM (active); in assay [22], > 100 µM (inactive). Moreover, the Ki in assay [23] was > 39.8 µM (inactive).
Regarding `Cn1cc(Nc2ncc(Br)c(Nc3ccccc3Cl)n2)cn1`, the results for the Ki in assay [24] and in [25] were 1 µM (active) and 0.0631 µM (active), respectively.
For the compound `CS(=O)(=O)Nc1cc2c(cc1Cl)NC(=O)Nc1cnc(C#N)c(n1)OCCCCCO2`, the Ki in [26] was > 7.94 µM (inactive).
For `COc1ccc(COc2ccc(Cc3cnc(N)nc3N)cc2OC)cc1` [GW632580X], the Ki in assay [27] is 0.158 µM (active); in assay [28], 1.58 µM (active).
